Experimental data published in ChEMBL document CHEMBL5465560, “Selectivity Literature for EUbOPEN Chemogenomic Library” (2024).
Each block holds one molecule with its values, some of them ahead of it.

Legend:
[1] = biological target: Dual specificity mitogen-activated protein kinase kinase 1 (Homo sapiens, UniProt Q02750); assay: Selectivity interaction (Kinase panel (Eurofins)) EUB0001564a MAP2K1; conditions: at 1 µM
[2] = tested on: eIF-2-alpha kinase GCN2 (Homo sapiens), Q9P2K8 [S808G]; conditions: at 10 µM
[3] = biological target: Tyrosine-protein kinase Srms (Homo sapiens) (UniProt Q9H3Y6); assay: Selectivity interaction (KinomeScan (DiscoverX)) EUB0001049a SRMS; conditions: at 1 µM
[4] = biological target: T1, Serine/threonine-protein kinase PLK4 (Homo sapiens) (UniProt O00444); assay: Selectivity interaction (Kinase panel (DSF assay)) EUB0001558a PLK4
T1 sequence (whole entry): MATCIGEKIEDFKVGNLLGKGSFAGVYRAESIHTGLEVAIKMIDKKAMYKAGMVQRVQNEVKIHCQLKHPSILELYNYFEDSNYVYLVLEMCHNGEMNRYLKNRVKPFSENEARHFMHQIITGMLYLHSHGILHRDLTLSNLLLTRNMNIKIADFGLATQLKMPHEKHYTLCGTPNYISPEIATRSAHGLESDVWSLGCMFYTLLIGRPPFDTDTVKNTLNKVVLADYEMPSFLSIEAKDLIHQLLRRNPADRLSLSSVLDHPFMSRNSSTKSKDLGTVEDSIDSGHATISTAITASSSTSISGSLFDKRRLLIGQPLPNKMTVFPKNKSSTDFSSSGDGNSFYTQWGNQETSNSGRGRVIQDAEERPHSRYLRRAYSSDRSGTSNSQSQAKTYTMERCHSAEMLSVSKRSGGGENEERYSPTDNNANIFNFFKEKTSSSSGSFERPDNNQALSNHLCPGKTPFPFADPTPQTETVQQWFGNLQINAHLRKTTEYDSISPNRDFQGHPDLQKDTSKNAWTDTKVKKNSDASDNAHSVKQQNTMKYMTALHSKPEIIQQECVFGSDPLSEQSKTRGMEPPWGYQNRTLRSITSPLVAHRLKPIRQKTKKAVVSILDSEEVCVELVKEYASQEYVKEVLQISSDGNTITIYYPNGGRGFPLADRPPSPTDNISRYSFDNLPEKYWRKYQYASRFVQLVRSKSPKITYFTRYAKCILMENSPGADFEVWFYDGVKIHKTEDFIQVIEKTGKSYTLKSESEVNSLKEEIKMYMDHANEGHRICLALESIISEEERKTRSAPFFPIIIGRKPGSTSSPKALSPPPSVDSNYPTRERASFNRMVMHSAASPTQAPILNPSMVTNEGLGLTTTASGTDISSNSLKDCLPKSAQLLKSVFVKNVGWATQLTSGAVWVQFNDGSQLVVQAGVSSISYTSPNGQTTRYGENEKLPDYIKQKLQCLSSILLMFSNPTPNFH

[5] = biological target: Glycogen synthase kinase-3 beta (Homo sapiens, UniProt P49841); assay: Selectivity interaction (KinomeScan (DiscoverX)) EUB0000045b GSK3B
[6] = biological target: Serine/threonine-protein kinase 10 (Homo sapiens) (UniProt O94804); assay: Selectivity interaction (KinomeScan (DiscoverX)) EUB0000229b STK10; conditions: at 10 µM
[7] = biological target: Serine/threonine-protein kinase MRCK gamma (Homo sapiens) (UniProt Q6DT37); assay: Selectivity interaction (KinomeScan (DiscoverX)) EUB0000229b CDC42BPG; conditions: at 10 µM
[8] = biological target: T2, Serine/threonine-protein kinase TAO2 (Homo sapiens) (UniProt Q9UL54); conditions: at 10 µM
T2 sequence (whole entry): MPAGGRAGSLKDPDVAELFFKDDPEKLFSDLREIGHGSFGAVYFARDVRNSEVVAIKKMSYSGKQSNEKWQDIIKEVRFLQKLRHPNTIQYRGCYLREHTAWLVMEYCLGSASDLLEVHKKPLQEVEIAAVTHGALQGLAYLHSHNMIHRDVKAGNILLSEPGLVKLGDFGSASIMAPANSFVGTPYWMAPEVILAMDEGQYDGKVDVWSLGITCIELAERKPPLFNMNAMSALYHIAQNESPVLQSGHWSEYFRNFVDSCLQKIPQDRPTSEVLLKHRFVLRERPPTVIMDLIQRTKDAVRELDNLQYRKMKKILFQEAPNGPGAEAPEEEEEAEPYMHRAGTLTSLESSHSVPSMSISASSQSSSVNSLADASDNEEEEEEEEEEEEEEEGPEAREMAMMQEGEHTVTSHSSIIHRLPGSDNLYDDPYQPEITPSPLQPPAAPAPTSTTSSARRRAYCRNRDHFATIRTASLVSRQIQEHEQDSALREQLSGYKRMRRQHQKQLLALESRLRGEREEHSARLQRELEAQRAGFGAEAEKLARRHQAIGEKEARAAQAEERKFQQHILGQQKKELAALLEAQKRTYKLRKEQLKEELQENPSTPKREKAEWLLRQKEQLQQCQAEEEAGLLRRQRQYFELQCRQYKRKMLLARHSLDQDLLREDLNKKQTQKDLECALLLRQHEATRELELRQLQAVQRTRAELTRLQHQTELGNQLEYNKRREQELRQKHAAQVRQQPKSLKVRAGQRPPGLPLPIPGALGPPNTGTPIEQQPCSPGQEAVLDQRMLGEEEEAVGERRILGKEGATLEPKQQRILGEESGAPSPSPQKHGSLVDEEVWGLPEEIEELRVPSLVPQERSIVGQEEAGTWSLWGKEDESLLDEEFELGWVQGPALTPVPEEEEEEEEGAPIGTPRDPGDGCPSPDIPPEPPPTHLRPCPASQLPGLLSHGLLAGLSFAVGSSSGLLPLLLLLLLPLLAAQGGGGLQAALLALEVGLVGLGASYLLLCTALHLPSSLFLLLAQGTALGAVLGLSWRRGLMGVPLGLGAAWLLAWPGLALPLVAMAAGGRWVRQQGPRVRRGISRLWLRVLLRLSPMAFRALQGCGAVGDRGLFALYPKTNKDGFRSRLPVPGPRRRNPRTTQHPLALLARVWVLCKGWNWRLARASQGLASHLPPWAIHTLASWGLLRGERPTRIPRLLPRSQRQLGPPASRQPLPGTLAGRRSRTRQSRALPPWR

Sequence of Glycogen synthase kinase-3 beta (P49841 whole entry, looked up): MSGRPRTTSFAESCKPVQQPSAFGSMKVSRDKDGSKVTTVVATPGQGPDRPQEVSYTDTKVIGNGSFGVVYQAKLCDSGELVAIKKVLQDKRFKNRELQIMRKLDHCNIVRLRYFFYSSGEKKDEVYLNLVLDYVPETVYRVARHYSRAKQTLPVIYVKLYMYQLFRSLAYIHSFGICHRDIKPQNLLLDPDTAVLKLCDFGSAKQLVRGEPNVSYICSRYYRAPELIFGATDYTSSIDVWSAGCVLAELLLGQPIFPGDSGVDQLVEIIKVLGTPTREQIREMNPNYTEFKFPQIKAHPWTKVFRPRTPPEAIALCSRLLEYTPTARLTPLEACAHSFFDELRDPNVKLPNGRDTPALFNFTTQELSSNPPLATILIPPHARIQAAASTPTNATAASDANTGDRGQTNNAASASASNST
Sequence of Serine/threonine-protein kinase 10 (Homo sapiens) (O94804 whole entry, looked up): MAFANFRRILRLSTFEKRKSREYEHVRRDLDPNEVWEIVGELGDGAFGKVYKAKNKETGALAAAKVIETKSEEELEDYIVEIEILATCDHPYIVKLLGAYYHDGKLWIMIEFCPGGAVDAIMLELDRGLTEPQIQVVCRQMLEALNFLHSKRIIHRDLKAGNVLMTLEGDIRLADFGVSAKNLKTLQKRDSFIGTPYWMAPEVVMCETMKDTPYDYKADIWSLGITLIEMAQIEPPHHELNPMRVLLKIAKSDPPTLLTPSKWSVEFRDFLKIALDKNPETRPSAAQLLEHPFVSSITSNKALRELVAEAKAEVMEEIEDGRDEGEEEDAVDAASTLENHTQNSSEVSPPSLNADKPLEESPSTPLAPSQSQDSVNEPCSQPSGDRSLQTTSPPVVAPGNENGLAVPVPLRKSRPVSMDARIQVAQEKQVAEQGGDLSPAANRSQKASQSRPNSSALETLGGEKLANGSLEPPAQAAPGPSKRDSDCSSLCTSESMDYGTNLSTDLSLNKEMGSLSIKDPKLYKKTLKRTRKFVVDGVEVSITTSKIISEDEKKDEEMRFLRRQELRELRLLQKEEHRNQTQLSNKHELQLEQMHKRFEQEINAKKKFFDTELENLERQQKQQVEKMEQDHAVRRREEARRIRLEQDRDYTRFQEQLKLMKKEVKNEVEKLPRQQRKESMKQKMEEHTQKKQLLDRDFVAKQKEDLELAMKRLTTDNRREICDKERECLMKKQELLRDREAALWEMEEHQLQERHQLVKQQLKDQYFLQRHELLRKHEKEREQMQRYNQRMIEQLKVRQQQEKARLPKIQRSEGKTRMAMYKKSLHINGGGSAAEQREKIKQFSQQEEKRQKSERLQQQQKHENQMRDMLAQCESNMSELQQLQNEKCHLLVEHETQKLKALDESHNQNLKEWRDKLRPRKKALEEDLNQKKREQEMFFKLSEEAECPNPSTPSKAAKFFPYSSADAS
Sequence of Dual specificity mitogen-activated protein kinase kinase 1 (Q02750 whole entry): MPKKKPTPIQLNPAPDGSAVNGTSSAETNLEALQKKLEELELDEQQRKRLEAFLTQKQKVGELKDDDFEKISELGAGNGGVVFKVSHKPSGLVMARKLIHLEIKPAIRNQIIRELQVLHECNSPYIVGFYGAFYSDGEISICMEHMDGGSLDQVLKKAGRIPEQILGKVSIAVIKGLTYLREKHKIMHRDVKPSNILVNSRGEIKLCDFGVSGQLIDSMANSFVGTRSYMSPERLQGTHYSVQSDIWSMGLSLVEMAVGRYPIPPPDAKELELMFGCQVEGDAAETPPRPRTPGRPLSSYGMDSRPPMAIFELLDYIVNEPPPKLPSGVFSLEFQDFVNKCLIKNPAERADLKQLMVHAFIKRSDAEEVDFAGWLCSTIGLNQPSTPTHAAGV
Sequence of Tyrosine-protein kinase Srms (Homo sapiens) (Q9H3Y6 whole entry): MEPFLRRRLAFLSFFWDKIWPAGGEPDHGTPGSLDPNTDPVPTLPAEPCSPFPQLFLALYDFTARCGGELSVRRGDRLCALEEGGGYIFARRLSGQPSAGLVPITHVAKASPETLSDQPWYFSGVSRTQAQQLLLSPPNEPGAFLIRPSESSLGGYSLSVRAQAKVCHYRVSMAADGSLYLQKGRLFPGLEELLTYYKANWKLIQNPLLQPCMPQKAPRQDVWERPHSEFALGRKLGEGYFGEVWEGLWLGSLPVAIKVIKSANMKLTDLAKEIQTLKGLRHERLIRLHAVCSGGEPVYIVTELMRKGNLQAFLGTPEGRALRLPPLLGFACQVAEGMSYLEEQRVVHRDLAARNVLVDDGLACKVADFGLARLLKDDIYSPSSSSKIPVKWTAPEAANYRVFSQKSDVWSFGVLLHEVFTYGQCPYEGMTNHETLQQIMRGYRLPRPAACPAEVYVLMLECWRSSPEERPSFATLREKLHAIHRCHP
Sequence of eIF-2-alpha kinase GCN2 (Homo sapiens), Q9P2K8 [S808G] (Q9P2K8 whole entry S808G): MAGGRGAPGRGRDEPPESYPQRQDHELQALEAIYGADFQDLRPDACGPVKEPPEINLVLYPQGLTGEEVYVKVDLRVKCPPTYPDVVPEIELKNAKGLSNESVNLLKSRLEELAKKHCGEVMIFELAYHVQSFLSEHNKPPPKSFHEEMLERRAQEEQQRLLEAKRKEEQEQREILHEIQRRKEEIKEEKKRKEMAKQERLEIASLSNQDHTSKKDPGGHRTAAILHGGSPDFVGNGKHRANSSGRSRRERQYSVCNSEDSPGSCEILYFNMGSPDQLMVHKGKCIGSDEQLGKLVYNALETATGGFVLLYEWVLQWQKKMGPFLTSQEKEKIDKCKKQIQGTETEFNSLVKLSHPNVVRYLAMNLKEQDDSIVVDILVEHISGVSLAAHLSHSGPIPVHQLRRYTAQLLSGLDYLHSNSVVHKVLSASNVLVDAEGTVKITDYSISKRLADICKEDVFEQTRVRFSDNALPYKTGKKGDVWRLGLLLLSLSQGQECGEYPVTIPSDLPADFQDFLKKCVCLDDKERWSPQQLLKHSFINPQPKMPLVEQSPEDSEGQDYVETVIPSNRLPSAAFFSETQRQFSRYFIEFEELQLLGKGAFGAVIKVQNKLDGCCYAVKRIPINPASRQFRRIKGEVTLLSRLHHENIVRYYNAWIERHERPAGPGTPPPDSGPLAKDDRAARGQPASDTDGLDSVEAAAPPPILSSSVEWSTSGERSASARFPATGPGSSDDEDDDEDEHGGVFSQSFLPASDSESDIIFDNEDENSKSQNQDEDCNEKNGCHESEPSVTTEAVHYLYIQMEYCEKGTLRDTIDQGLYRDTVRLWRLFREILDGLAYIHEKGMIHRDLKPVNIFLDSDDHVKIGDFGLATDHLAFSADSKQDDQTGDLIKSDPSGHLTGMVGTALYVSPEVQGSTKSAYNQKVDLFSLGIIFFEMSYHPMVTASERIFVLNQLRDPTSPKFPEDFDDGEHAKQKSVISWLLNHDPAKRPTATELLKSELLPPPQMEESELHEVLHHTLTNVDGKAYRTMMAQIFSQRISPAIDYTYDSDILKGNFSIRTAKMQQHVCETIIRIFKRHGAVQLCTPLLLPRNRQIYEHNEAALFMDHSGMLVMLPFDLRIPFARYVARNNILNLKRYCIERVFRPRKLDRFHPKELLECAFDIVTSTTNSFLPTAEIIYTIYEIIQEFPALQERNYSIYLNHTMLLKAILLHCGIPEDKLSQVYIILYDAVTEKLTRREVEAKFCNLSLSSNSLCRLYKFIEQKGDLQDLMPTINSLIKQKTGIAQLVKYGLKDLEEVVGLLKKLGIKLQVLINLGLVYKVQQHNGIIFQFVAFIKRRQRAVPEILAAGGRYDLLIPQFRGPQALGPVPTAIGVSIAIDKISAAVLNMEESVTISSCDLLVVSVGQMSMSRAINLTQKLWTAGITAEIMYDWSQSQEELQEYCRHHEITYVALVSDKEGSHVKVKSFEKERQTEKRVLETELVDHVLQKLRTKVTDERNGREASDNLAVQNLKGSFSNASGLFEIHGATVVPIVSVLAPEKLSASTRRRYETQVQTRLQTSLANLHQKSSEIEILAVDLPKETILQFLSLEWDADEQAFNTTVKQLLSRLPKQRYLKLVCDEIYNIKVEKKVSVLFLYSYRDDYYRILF

% of inhibition [1]: 21.5%
Structure (SMILES): CC[C@@H](Nc1c(C#N)c(-c2ccc(-c3cccc(C)c3F)cc2)nc2cnccc12)C(=O)O [BAY-091]

% of control [2]: 100%
Structure (SMILES): CCN(CC)CCCCNc1ncc2cc(-c3cc(OC)cc(OC)c3)c(NC(=O)NC(C)(C)C)nc2n1

Structure (SMILES): COc1cc(Nc2nc(C)cc(-c3cnn4nc(OC)ccc34)n2)cc(C(F)(F)F)c1
% of control [3]: 66%

Structure (SMILES): CC(C)(O)[C@H](F)CN1Cc2cc(NC(=O)c3cnn4cccnc34)c(N3CCOCC3)cc2C1=O
dTM [4]: 5.2 K

Structure (SMILES): C=CC(=O)Nc1cc(-n2c(=O)ccc3cnc4ccc(-c5ccc(NS(C)(=O)=O)cc5)cc4c32)ccc1C
% of control ([5]; at 1 µM): 100% | % of control ([5]; at 10 µM): 77%

Structure (SMILES): COc1cc(N(C)c2ccnc3ccc(C(F)(F)F)cc23)cc(OC)c1OC
% binding [6]: 84% | % binding [7]: 94%

Structure (SMILES): Cc1cc([C@@H](C)Nc2ccccc2C(=O)O)c2nc(N3CCOCC3)cc(=O)n2c1 [AZD-6482]
% of control [8]: 94%
